One may read the solubility (kinetic) as solubility judged after dilution from a stock solution rather than from solid. In general, EC50 refers to the concentration giving half of the maximal effect.

One series in a line: Kinetic solubility. In kind it is physicochemical. Particulars: aqueous buffer, kinetic from dmso stock; 100 mM potassium phosphate buffer, 37 °C. The method, then:
Test compound was added to 100 mM potassium phosphate buffer and incubated at 37 °C for at least 20 h in a heater-shaker. After incubation, the samples were centrifuged at 3000 × g at 37 °C for 30 min to pellet insoluble material and an aliquot of the supernatant was taken for analysis. After dilution of the sample, the concentration of dissolved compound was quantified by liquid chromatography coupled to triple quadrupole mass spectrometry (LC-MS/MS).

The nature of series [1]: Metabolic stability in the presence of mouse liver microsomes. The note with it: pH 7.4, read-out: intrinsic clearance, CLint. In kind it is in vitro ADME. The method, then:
Metabolic stability was determined in 0.5 mg/ml mouse liver microsomes at a compound concentration of 1 μM in 100 mM KPO4 buffer, pH 7.4, in a total incubation volume of 500 μl. The reaction was initiated by addition of 1 mM NADPH. At various incubation times, i.e., at 0, 5, 10, 20, 40, and 60 min, a sample was withdrawn from the incubation, and the reaction was terminated by addition of cold acetonitrile with warfarin as an internal standard. The amount of parent compound remaining was analyzed by LC-MS/MS[70].
On the technique in general: Liver microsomes are a subcellular fraction often used to study metabolism.

The target of another series is T1, GPR139 (Homo sapiens, UniProt Q6DWJ6).
T1 sequence (Q6DWJ6 1-353): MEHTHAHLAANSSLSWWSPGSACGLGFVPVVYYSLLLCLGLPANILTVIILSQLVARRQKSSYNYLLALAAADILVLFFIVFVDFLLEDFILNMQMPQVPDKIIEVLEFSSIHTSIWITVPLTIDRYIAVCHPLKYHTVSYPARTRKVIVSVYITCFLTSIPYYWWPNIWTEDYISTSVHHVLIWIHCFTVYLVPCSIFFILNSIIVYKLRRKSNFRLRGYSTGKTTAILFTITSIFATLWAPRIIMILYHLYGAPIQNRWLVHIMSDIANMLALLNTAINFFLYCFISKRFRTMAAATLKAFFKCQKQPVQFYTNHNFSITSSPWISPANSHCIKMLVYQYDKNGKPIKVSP
Briefly: Signaling pathway panel at GPR139 (Gi2, Gi3, GoA, Gq, G12, Ca2+, arrestin-3), HEK293A. In kind it is cell-based. The arrangement: expressed in transfected cells; host or cells: HEK293A (transient, Lipofectamine 2000). The note with it: for fold more potent than the R-enantiomer: across individual signaling pathways. The method, then:
We evaluated the signaling pathways activated by the potent agonist 1.1 and JNJ-63533054 compounds through GPR139. […] As all our screens of analogs were performed with racemic mixtures, we synthesized compound 1.1 as pure S- and R-enantiomer (1.1(S) and 1.1(R), respectively) along with JNJ-63533054 (JNJ(S)) and its R-enantiomer (JNJ(R)). Detailed synthetic procedures are described in the Supplementary Methods. We then characterized these four compounds in assays measuring the activation of Gi2, Gi3, GoA, Gq, and G12 proteins, intracellular calcium mobilization, and arrestin-3 recruitment. G protein activation was measured using a BRET-based Gα-specific G protein dissociation assay[57] and arrestin-3 recruitment was measured with an enhanced bystander BRET assay[58] (Fig. 5a).
HEK293A cells were reverse-transfected with human GPR139 for Ca^2+ mobilization experiments with transiently expressed GPR139. The construct has been generated and described previously by Nøhr et al.. DNA and Lipofectamine 2000 Transfection Reagent (ThermoFisher #11668019) were separately diluted in Opti-MEM I Reduced Serum Medium (ThermoFisher #31985070). 10 ng GPR139 DNA and 250 nL Lipofectamine were used for each well. The dilutions were incubated at room temperature for 5 min. Then, DNA and Lipofectamine dilutions were combined in 1:1 volumetric ratio and incubated at room temperature for 20 min to obtain the transfection solutions. 10 µL transfection solution and 20,000 cells in 100 µL growth medium were distributed in each well of black clear bottom tissue culture treated 96-well plates that were previously coated with poly-D-lysine (Sigma-Aldrich #P0899). Cells were grown for approximately 48 h. A calcium mobilization assay was performed as described.
The G protein dissociation assay developed by the lab of Kirill A. Martemyanov was used to measure the coupling of multiple G proteins by GPR139[57]. The assay was performed as described previously with minor modifications. […] Simultaneous dual emission was measured at 535 nm and 475 nm on LUMIstar Omega Microplate Reader (BMG Labtech) at room temperature. […]

Details of series [2]: method as in PMID 26349500. Particulars: first hour after treatment; cited from earlier work.

Values after ≈ are worked out from the molar mass of the structure shown.

Compound `Cc1cscc1-c1nc(CC(=O)N[C@@H](C)c2ccccc2)no1` [1.1(S)] showed a solubility (kinetic) in the series “Kinetic solubility” of 13 µM (≈ 4.26 µg/mL). The microsomal CLint at 1 μM in series [1] turned out to be 1370 µL/min/mg. In addition, the “fold more potent than the R-enantiomer” value at GPR139 is on record as 13- to 63 fold. For the same compound, at GPR139 (range over pathways, read-out: EC50 for stimulating the individual signaling pathways at GPR139), the EC50 lay within 13 to 200 nM.
With `Cc1nocc1-c1nc(CC(=O)NC(C)c2ccccc2)no1` (centres unmarked) [Compound 1.5, CC(C1=CC=CC=C1)NC(CC2=NOC(C3=CON=C3C)=N2)=O], the kinetic solubility in the series “Kinetic solubility” amounted to 24 µM (≈ 7.5 µg/mL). For the same compound, in series [1], the microsomal CLint at 1 μM was 46 µL/min/mg.
On to `CC(NC(=O)CNC(=O)c1cccc(Cl)c1)c1ccccc1` (centres unmarked) [JNJ-63533054, reference compound], for which, in series [2], the locomotor activity result is on record as “reduction in locomotor activity”. The “fold more potent than the R-enantiomer” value on GPR139 was 40- to 158 fold.

Source of the values: paper PMC12775434, “Ultra-large virtual screening unveils potent agonists of the neuromodulatory orphan receptor GPR139” (Nature Communications, 2025).
